Data published in patent US12582638B2, “Pharmaceutical composition for treating cancer, containing mTOR-signaling inhibitor as active ingredient” (KOREA ADVANCED INSTITUTE OF SCIENCE AND TECHNOLOGY, priority 2020, dated 2026).

What was measured:
[1] = tested on: p-S6K, p-S6, LC3; test: Cell signaling assay, western blot, SNU1; format: cell-based, human; conditions: 0, 5, and 10 μM, FIG. 7f
Experimental: (§1) Cells treated with various concentration (0, 5, and 10 μM) of lomitapide were lysed with RIPA buffer containing a protease-inhibitor cocktail. The whole-cell lysate was incubated on ice for 30 minutes. After centrifugation at 4° C. and 13,300×g for 15 minutes, the supernatant was collected. For use as controls, cells were treated with 1 μM of torin, known as an mTOR inhibitor.
(§2) For western blot analysis, the supernatant was loaded onto 10% SDS-PAGE gel. The separated proteins were blotted onto a PVDF membrane. Then, the blots were incubated with antibodies at 4° C. for 12 hours as follows (Table 3).
(§3) Then, the blots were washed with TBST (a mixture of tris-buffered saline (TBS) and Tween 20), incubated with horseradish peroxidase-conjugated secondary antibody (Cell signaling) at 37° C. for 1 hour, and washed, followed by detecting enhanced chemiluminescence (ECL; Amersham).

[2] = tested on: HCT116; test: RNA-seq assay, gene set enrichment, pathway enrichment and DEG analysis; format: cell-based, human; conditions: FIG. 12
Experimental: For the final detection of significant gene-sets, gene annotation databases (KEGG pathway, Gene Ontology, etc.) with various biological information about genes were used to discover various gene-sets by grouping genes with specific functions among all the genes used in the RNA-seq experiment. Significant genes were determined with reference to a difference in expression values between the two classes within each gene-set, and statistically significant gene-set was finally detected based on the significant genes. […] In DEG analysis, expression values of genes are measured and statistically processed to select a significant gene candidate group (differentially expression genes) with a difference in expression between a control and a comparison group.

[3] = tested on: MC38 colorectal cancer; test: Mouse homograft tumor model, MC38 colorectal cancer; format: in vivo; conditions: MC38 in C57B6/N mice
Experimental: For mouse homograft tumor model, experiments were conducted using female C57B6/N mice (wild-type, 6 weeks old) with MC38 colorectal cancer and B16F10 melanoma cell lines. MC38 colorectal cancer and B16F10 melanoma cell lines were each subcutaneously injected at a dose of 2×10^5 cells. Lomitapide used in the two models was formulated with 45% saline, 40% PEG300, 5% Tween-80, and 10% DMSO.
From 10 days after the DMC38 colorectal cancer cells injection, lomitapide was intraperitoneally injected five times at a dose of 20 mg/kg, and anti-PD-1 mAb (clone RMP1-14, BioXCell, West Lebanon, NH, USA) or rat IgG2a iso-type control (clone 2A3, BioXCell, BE0089) in PBS was administered at a dose of 10 mg/kg at days 1, 4, 7, and 10 (FIGS. 18a and 18b).

[4] = tested on: p-S6K, p-S6, LC3; test: Cell signaling assay, western blot, MDA-MB-468; format: cell-based, human; conditions: 0, 5, and 10 μM, FIG. 7d
Experimental: as §1, with “concentrations” for “concentration”, “controls, HCT116, SW480, HT29, MDA-MB-231, and MDA-MB-468” for “controls,”
(§4) For western blot analysis, the supernatant was loaded onto 10% SDS-PAGE gel. The separated proteins were blotted onto a PVDF membrane. Then, the blots were incubated with antibodies at 4° C. for 12 hours as follows (Table 2).
as §3

[5] = tested on: p-S6K, p-S6, LC3; test: Cell signaling assay, western blot, HS746T; format: cell-based, human; conditions: 0, 5, and 10 μM, FIG. 7e
Experimental: as §1, §2, §3

[6] = tested on: p-S6K, p-S6, LC3; test: Cell signaling assay, western blot, SNU2; format: cell-based, human; conditions: 0, 5, and 10 μM, FIG. 7g
Experimental: as §1, §2, §3

[7] = tested on: HT29; test: Viability assay for lomitapide-treated colorectal cells (CellTiter-Glo, 24); format: cell-based, human; conditions: 0, 1, 2, 5, and 10 μM, dose-dependent
Experimental: (§5) NCM460, HCT116, HT29, and SW480 cell lines were each seeded at a density of 10^4 cells/well into 96-well plates and incubated 37° C. for 24 hours before treatment with various concentrations (0, 1, 2, 5, and 10 μM) of lomitapide (Sigma Aldrich, Missouri, USA). After treatment of the cells with lomitapide at 37° C. for 24 in a 5% CO2 atmosphere, 100 μL of an assay reagent (CellTiter-Glo® Reagent) was added to each well. Then, luminescence was read using VICTOR X Multilabel Reader (PerkinElmer, Massachusetts, USA) and used to calculate cell viability (%). Results are depicted in FIGS. 2 to 4.

[8] = tested on: SW480; test: as above; format: cell-based, human; conditions: 0, 1, 2, 5, and 10 μM, dose-dependent
Experimental: as §5

[9] = tested on: HCT116; test: as above; format: cell-based, human
Experimental: as §5

[10] = tested on: p-S6K, p-S6, LC3; test: Cell signaling assay, western blot, SW480; format: cell-based, human; conditions: 0, 5, and 10 μM, FIG. 7a
Experimental: as §1, with “concentrations” for “concentration”, “controls, HCT116, SW480, HT29, MDA-MB-231, and MDA-MB-468” for “controls,”
as §4, §3

[11] = tested on: p-AMPK, LC3, p-ULK1; test: Autophagy assay, western blot, HCT116; format: cell-based, human; conditions: 0, 5, and 10 μM, FIG. 8
Experimental: HCT116 cells treated with various concentration (0, 5, and 10 μM) of lomitapide were analyzed for change in cell autophagy-related cell signaling pathway by western blotting. To this end, the supernatant obtained in Example 3 was loaded onto 10% SDS-PAGE gel. The proteins thus separated were blotted onto a PVDF membrane. Then, the blots were incubated with anti-p-AMPK, anti-LC3, anti-p-ULK1 antibodies (Cell Signaling Technology, Massachusetts, USA) at 4° C. for 12 hours. Afterward, the blots were washed with TBST (a mixture of tris-buffered saline (TBS) and Tween 20), incubated with horseradish peroxidase-conjugated secondary antibody (Cell signaling) at 37° C. for 1 hour, and washed, followed by detecting enhanced chemiluminescence (ECL; Amersham).

## O=C(NC1CCN(CCCCC2(C(=O)NCC(F)(F)F)c3ccccc3-c3ccccc32)CC1)c1ccccc1-c1ccc(C(F)(F)F)cc1 [lomitapide, N-(2,2,2-trifluoroethyl)-9-[4-[4-[[[4′-(trifluoromethyl)[1,1′-biphenyl]2-yl]carbonyl]amino]-1-piperidinyl]butyl]-9H-fluoren-9-carboxamide]
[1]
  conversion from LC3I into LC3II: increased induction of conversion from LC3I into LC3II
[1]; dose-dependent
  phosphorylation levels of target proteins (p-S6K, p-S6): remarkably decreased phosphorylation levels
[2]
  expression of autophagy-related genes ATG family, ULK1, and DDIT4 (DEG analysis): significantly expressed
[3]; lomitapide 20 mg/kg i.p., anti-PD-1 mAb 10 mg/kg
  tumor growth compared to the groups treated with the anti-PD-1 mAb: greatly suppressed and reduced
[3]; lomitapide 20 mg/kg intraperitoneally five times
  tumor growth compared to the control: significantly suppressed and reduced tumor growth
[4]
  conversion from LC3I into LC3II: increased induction of conversion from LC3I into LC3II
  phosphorylation levels of target proteins (p-S6K and p-S6): remarkably decreased phosphorylation levels
[5]
  conversion from LC3I into LC3II: increased induction of conversion from LC3I into LC3II
[5]; dose-dependent
  phosphorylation levels of target proteins (p-S6K, p-S6): remarkably decreased phosphorylation levels
[6]
  conversion from LC3I into LC3II: increased induction of conversion from LC3I into LC3II
[6]; dose-dependent
  phosphorylation levels of target proteins (p-S6K, p-S6): remarkably decreased phosphorylation levels
[7]
  cell viability: reduced the viability
[8]
  cell viability: reduced the viability
[9]; HCT116, 0, 1, 2, 5, and 10 μM, dose-dependent
  cell viability: reduced the viability
[9]; HCT116 vs normal human colonic epithelial cells (NCM460), FIG. 2
  cell viability of cancer cells compared to normal cells: decreased cell viability
[10]
  conversion from LC3I into LC3II: increased induction of conversion from LC3I into LC3II
  phosphorylation levels of target proteins (p-S6K and p-S6): remarkably decreased phosphorylation levels
[11]
  conversion from LC3I into LC3II: significantly increased induction of conversion from LC3I into LC3II
[11]; dose-dependent
  phosphorylation level of AMPK: remarkably increased
